Our source for the IC50 values is US8778941B2, “TRPM8 antagonists and their use in treatments” (AMGEN Inc., priority 2011, dated 2014).

Molecules are shown by their SMILES.

This assay has as its target T1, human TRPM8 (Homo sapiens, UniProt Q7Z2W7).
T1 construct: expressed in transfected cells; host or cells: Chinese hamster ovary (CHO) cells, T-REx tetracycline-inducible expression system (Invitrogen), co-transfected with pcDNA3.1 jellyfish aequorin
The assay is described as follows: Luminescence readout assay for measuring intracellular calcium (aequorin), hTRPM8 antagonism. As to conditions: CHO cell line expressing human TRPM8 and aequorin; activation by icilin, L-menthol or cold buffer (table does not say which). It is filed as cell-based.

T1 sequence (Q7Z2W7 whole entry): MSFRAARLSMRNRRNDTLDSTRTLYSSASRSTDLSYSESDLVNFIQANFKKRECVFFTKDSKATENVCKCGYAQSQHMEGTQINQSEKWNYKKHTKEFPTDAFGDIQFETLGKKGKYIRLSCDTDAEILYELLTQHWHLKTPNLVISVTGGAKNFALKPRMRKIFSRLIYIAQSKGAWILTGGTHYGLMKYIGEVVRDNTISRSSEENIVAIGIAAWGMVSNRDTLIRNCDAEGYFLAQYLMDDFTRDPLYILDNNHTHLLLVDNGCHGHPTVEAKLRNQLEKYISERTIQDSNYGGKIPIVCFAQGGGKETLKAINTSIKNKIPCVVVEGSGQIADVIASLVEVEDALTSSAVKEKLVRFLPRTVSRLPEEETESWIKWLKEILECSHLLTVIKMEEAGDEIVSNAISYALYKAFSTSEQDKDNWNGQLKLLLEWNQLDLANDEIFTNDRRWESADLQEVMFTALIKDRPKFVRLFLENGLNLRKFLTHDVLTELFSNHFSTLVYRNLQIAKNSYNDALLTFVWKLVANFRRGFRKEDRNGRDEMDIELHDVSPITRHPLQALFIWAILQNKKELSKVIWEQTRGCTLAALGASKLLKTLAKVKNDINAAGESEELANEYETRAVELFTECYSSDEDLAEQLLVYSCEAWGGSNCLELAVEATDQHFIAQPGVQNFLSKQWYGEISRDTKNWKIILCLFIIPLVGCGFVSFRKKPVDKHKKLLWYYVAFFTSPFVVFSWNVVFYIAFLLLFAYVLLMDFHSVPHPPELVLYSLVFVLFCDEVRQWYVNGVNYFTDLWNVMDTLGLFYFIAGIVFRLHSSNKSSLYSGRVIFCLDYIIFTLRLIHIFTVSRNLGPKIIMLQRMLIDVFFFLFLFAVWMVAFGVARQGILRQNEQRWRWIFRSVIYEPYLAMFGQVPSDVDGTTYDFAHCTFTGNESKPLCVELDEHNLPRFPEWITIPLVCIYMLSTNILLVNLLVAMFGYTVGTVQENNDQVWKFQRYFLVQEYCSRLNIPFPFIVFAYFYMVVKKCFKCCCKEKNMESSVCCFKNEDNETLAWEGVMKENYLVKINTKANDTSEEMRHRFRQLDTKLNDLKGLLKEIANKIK

With `CCOc1ccccc1CNC(=O)N[C@@H](c1ccc(C(F)(F)F)cc1)c1ncccc1C(F)(F)F` [Example 133, (S)-1-(2-ethoxybenzyl)-3-((4-(trifluoro-methyl)-phenyl)(3-(trifluoro-methyl)-pyridin-2-yl)-methyl)urea (2,2,2-trifluoro-acetate)], the IC50 was found to be 1590 nM.

As for `O=C(NCc1ccc(Cl)cc1)N[C@@H](c1ccc(C(F)(F)F)cc1)c1ncccc1C(F)(F)F` [Example 134, (S)-1-(4-chlorobenzyl)-3-((4-(trifluoro-methyl)-phenyl)(3-(trifluoro-methyl)-pyridin-2-yl)-methyl)urea (2,2,2-trifluoro-acetate)], the IC50 stood at 1070 nM.

In the case of `O=C(NCc1ccc(Cl)cc1Cl)N[C@@H](c1ccc(C(F)(F)F)cc1)c1ncccc1C(F)(F)F` [Example 135, (S)-1-(2,4-dichlorobenzyl)-3-((4-(trifluoro-methyl)-phenyl)(3-(trifluoro-methyl)-pyridin-2-yl)-methyl)urea (2,2,2-trifluoro-acetate)], the IC50 was 829 nM.

For `COC(=O)[C@H](Cc1ccccc1)NC(=O)N[C@@H](c1ccc(C(F)(F)F)cc1)c1ncccc1C(F)(F)F` [Example 136, (S)-methyl 3-phenyl-2-(3-((S)-(4-(trifluoro-methyl)-phenyl)(3-(trifluoro-methyl)-pyridin-2-yl)-methyl)-ureido)-propanoate (2,2,2-trifluoro-acetate)], the IC50 was 4050 nM.

As for `CSc1ccccc1NC(=O)N[C@@H](c1ccc(C(F)(F)F)cc1)c1ncccc1C(F)(F)F` [Example 137, (S)-1-(2-(methylthio)-phenyl)-3-((4-(trifluoro-methyl)-phenyl)(3-(trifluoro-methyl)-pyridin-2-yl)-methyl)urea (2,2,2-trifluoro-acetate)], the IC50 worked out at 156 nM.

In the case of `CC(=O)c1ccc(NC(=O)N[C@@H](c2ccc(C(F)(F)F)cc2)c2ncccc2C(F)(F)F)cc1` [Example 138, (S)-1-(4-acetylphenyl)-3-((4-(trifluoro-methyl)-phenyl)(3-(trifluoro-methyl)-pyridin-2-yl)-methyl)urea (2,2,2-trifluoro-acetate)], the IC50 was 3720 nM.

As for `O=C(Nc1ccc(F)c([N+](=O)[O-])c1)N[C@@H](c1ccc(C(F)(F)F)cc1)c1ncccc1C(F)(F)F` [Example 139, (S)-1-(4-fluoro-3-nitrophenyl)-3-((4-(trifluoro-methyl)-phenyl)(3-(trifluoro-methyl)-pyridin-2-yl)-methyl)urea (2,2,2-trifluoro-acetate)], the IC50 stood at 1310 nM.

For `Cc1ccc(NC(=O)N[C@@H](c2ccc(C(F)(F)F)cc2)c2ncccc2C(F)(F)F)cc1[N+](=O)[O-]` [Example 140, (S)-1-(4-methyl-3-nitrophenyl)-3-((4-(trifluoro-methyl)-phenyl)(3-(trifluoro-methyl)-pyridin-2-yl)-methyl)urea (2,2,2-trifluoro-acetate)], the IC50 came out at 1300 nM.

For `COc1cc([N+](=O)[O-])ccc1NC(=O)N[C@@H](c1ccc(C(F)(F)F)cc1)c1ncccc1C(F)(F)F` [Example 141, (S)-1-(2-methoxy-4-nitrophenyl)-3-((4-(trifluoro-methyl)-phenyl)(3-(trifluoro-methyl)-pyridin-2-yl)-methyl)urea (2,2,2-trifluoro-acetate)], the IC50 stood at 360 nM.

As for `Cc1c(NC(=O)N[C@@H](c2ccc(C(F)(F)F)cc2)c2ncccc2C(F)(F)F)cccc1[N+](=O)[O-]` [Example 142, (S)-1-(2-methyl-3-nitrophenyl)-3-((4-(trifluoro-methyl)-phenyl)(3-(trifluoro-methyl)-pyridin-2-yl)-methyl)urea (2,2,2-trifluoro-acetate)], the IC50 was 2180 nM.

On to `Cc1ccc([N+](=O)[O-])c(NC(=O)N[C@@H](c2ccc(C(F)(F)F)cc2)c2ncccc2C(F)(F)F)c1` [Example 143, (S)-1-(5-methyl-2-nitrophenyl)-3-((4-(trifluoro-methyl)-phenyl)(3-(trifluoro-methyl)-pyridin-2-yl)-methyl)urea (2,2,2-trifluoro-acetate)], for which the IC50 was determined as 1300 nM.

Take `O=C(NCc1ccc(F)cc1)N[C@@H](c1ccc(C(F)(F)F)cc1)c1ncccc1C(F)(F)F` [Example 144, (S)-1-(4-fluorobenzyl)-3-((4-(trifluoro-methyl)-phenyl)(3-(trifluoro-methyl)-pyridin-2-yl)-methyl)urea (2,2,2-trifluoro-acetate)]: the IC50 came to 541 nM.

`Cc1ccccc1NC(=O)N[C@@H](c1ccc(C(F)(F)F)cc1)c1ncccc1C(F)(F)F` [Example 145, (S)-1-(o-tolyl)-3-((4-(trifluoro-methyl)-phenyl)(3-(trifluoro-methyl)-pyridin-2-yl)-methyl)urea (2,2,2-trifluoro-acetate)]: the IC50 was 474 nM.

In the case of `Cc1ccc(F)c(NC(=O)N[C@@H](c2ccc(C(F)(F)F)cc2)c2ncccc2C(F)(F)F)c1` [Example 146, (S)-1-(2-fluoro-5-methylphenyl)-3-((4-(trifluoro-methyl)-phenyl)(3-(trifluoro-methyl)-pyridin-2-yl)-methyl)urea (2,2,2-trifluoro-acetate)], the IC50 came out at 3770 nM.

Turning to `Cc1cccc(CNC(=O)N[C@@H](c2ccc(C(F)(F)F)cc2)c2ncccc2C(F)(F)F)c1` [Example 147, (S)-1-(3-methylbenzyl)-3-((4-(trifluoro-methyl)-phenyl)(3-(trifluoro-methyl)-pyridin-2-yl)-methyl)urea (2,2,2-trifluoro-acetate)], the IC50 worked out at 3830 nM.

Take `O=C(Nc1ccc(-c2noc(=O)[nH]2)cc1)N[C@@H](c1ccc(C(F)(F)F)cc1)c1ncccc1C(F)(F)F` [Example 148, (S)-1-(4-(5-Oxo-4,5-dihydro-1,2,4-oxadiazol-3-yl)phenyl)-3-((4-(trifluoromethyl)phenyl)(3-(trifluoromethyl)pyridin-2-yl)methyl)urea]: the IC50 is 1610 nM.

Regarding `O=C1Cc2cc(NC(=O)N[C@@H](c3ccc(C(F)(F)F)cc3)c3ncccc3F)ccc2N1` [Example 149], the IC50 was found to be 55 nM.

Regarding `CC#Cc1cccnc1[C@@H](NC(=O)N[C@@H](C)C(F)(F)F)c1ccc(C(F)(F)F)cc1` [Example 150, 1-((S)-(3-(prop-1-yn-1-yl)pyridin-2-yl)(4-(trifluoro-methyl)-phenyl)-methyl)-3-((S)-1,1,1-trifluoro-propan-2-yl)-urea], the IC50 turned out to be 48 nM.

In the case of `C[C@@H](NC(=O)N[C@@H](c1ccc(C(F)(F)F)c(F)c1)c1ncccc1C(F)(F)F)C(F)(F)F` [Example 152, 1-((S)-(3-fluoro-4-(trifluoro-methyl)-phenyl)(3-(trifluoro-methyl)-pyridin-2-yl)-methyl)-3-((R)-1,1,1-trifluoro-propan-2-yl)-urea (2,2,2-trifluoro-acetate)], the IC50 was found to be 70 nM.

In the case of `C[C@H](NC(=O)N[C@@H](c1ccc(C(F)(F)F)cc1)c1ccccc1Br)C(F)(F)F` [Example 154, 1-((S)-(2-bromophenyl) (4-(trifluoro-methyl)-phenyl)-methyl)-3-((S)-1,1,1-trifluoro-propan-2-yl)-urea], the IC50 amounted to 900 nM.

Take `O=C(Nc1cncnc1)N[C@@H](c1ccc(C(F)(F)F)c(F)c1)c1ncccc1C(F)(F)F` [Example 155, (S)-1-((3-fluoro-4-(trifluoro-methyl)-phenyl)(3-(trifluoro-methyl)-pyridin-2-yl)-methyl)-3-(pyrimidin-5-yl)urea (2,2,2-trifluoro-acetate)]: the IC50 turned out to be 62 nM.

In the case of `C=CCc1cccnc1[C@@H](NC(=O)N[C@@H](C)C(F)(F)F)c1ccc(C(F)(F)F)cc1` [Example 158, 1-((S)-(3-allylpyridin-2-yl)(4-(trifluoro-methyl)-phenyl)-methyl)-3-((S)-1,1,1-trifluoro-propan-2-yl)-urea], the IC50 stood at 28 nM.

`COc1ncc(NC(=O)N[C@@H](c2ccc(C(F)(F)F)cc2)c2ncccc2C(F)(F)F)cn1` [Example 159, (S)-1-(2-Methoxypyrimidin-5-yl)-3-((4-(trifluoromethyl)-phenyl)(3-(trifluoromethyl)pyridin-2-yl)methyl)urea]: the IC50 was determined as 407 nM.

For the molecule `COc1ncc(NC(=O)N[C@@H](c2ccc(C(F)(F)F)cc2)c2ncccc2F)cn1` [Example 160, (S)-1-((3-fluoropyridin-2-yl)(4-(trifluoro-methyl)-phenyl)-methyl)-3-(2-methoxy-pyrimidin-5-yl)urea], the IC50 was 1650 nM.

In the case of `Cn1ccc(NC(=O)N[C@@H](c2ccc(C(F)(F)F)cc2)c2ncccc2F)cc1=O` [Example 161, (S)-1-((3-fluoropyridin-2-yl)(4-(trifluoro-methyl)-phenyl)-methyl)-3-(1-methyl-2-oxo-1,2-dihydropyridin-4-yl)urea], the IC50 was 1250 nM.

Consider `Cn1cc(NC(=O)N[C@@H](c2ccc(C(F)(F)F)cc2)c2ncccc2F)ccc1=O` [Example 162, (S)-1-((3-fluoropyridin-2-yl)(4-(trifluoro-methyl)-phenyl)-methyl)-3-(1-methyl-6-oxo-1,6-dihydropyridin-3-yl)urea], for which the IC50 stood at 491 nM.

As for `O=C(Nc1ccc[nH]c1=O)N[C@@H](c1ccc(C(F)(F)F)cc1)c1ncccc1F` [Example 163, (S)-1-((3-fluoropyridin-2-yl)(4-(trifluoro-methyl)-phenyl)-methyl)-3-(2-oxo-1,2-dihydropyridin-3-yl)urea], the IC50 stood at 76 nM.

`O=C(Nc1cc[nH]c(=O)c1)N[C@@H](c1ccc(C(F)(F)F)cc1)c1ncccc1F` [Example 164, (S)-1-((3-fluoropyridin-2-yl)(4-(trifluoro-methyl)-phenyl)-methyl)-3-(2-oxo-1,2-dihydropyridin-4-yl)urea]: the IC50 was found to be 2880 nM.

Take `O=C(Nc1ccc(=O)[nH]c1)N[C@@H](c1ccc(C(F)(F)F)cc1)c1ncccc1F` [Example 165, (S)-1-((3-fluoropyridin-2-yl)(4-(trifluoro-methyl)-phenyl)-methyl)-3-(6-oxo-1,6-dihydropyridin-3-yl)urea]: the IC50 was found to be 3210 nM.

Take `O=C1Cc2ccc(NC(=O)N[C@@H](c3ccc(C(F)(F)F)cc3)c3ncccc3F)cc2N1` [Example 166, (S)-1-((3-fluoropyridin-2-yl)(4-(trifluoro-methyl)-phenyl)-methyl)-3-(2-oxoindolin-6-yl)urea]: the IC50 worked out at 86 nM.
